Laboratory results taken from patent US8389523B2, “Substituted quinoxaline and an agrochemical composition thereof” (Kumiai Chemical Industry Co., Ltd., priority 2007, dated 2013).

Experiments:
Type in all cases: in vivo
Parameters in all cases: scale not given here
Amaranthus viridis L. [1] = assay: Herbicidal effects in upland field soil treatment (Test Example 2); conditions: 1000 g active ingredient per hectare, 21st day after treatment, criteria of Table 138
Method in brief: (§1)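 Pre-emergence test: seeds sown in upland soil, then soil surface sprayed with diluted wettable powder at 1000 g active ingredient per hectare (1000 liters per hectare). Greenhouse growth; herbicidal effect scored on day 21 against set criteria.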

[2] = tested on: Abutilon theophrasti medicus; assay: as above; conditions: 1000 g active ingredient per hectare, 21st day after treatment, criteria of Table 138
Method in brief: as §1

[3] = tested on: Echinochloa crus-galli (L.) P. Beauv. var. crus-galli; assay: Herbicidal effects in upland field foliar treatment (Test Example 3); conditions: criteria of Table 138; for herbicidal effects on Echinochloa crus-galli (L.) P. Beauv. var. crus-galli: 1000 g of the active ingredient per hectare, 14th day after the treatment, wettable powder; for herbicidal effect (index) on Echinochloa crus-galli (L.) P. Beauv. var. crus-galli: 1000 g active ingredient per hectare, 14th day after treatment
Method in brief: (§2)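 Plants grown two weeks from seed in upland soil in a greenhouse, then sprayed overall with water-diluted wettable powder at 1000 L/ha delivering 1000 g active ingredient/ha. Herbicidal effect scored by rating criteria 14 days after treatment.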

Amaranthus viridis L. [4] = assay: as above; conditions: criteria of Table 138; for herbicidal effects on Amaranthus viridis L.: 1000 g of the active ingredient per hectare, 14th day after the treatment, wettable powder; for herbicidal effect (index) on Amaranthus viridis L.: 1000 g active ingredient per hectare, 14th day after treatment
Method in brief: as §2

[5] = tested on: Abutilon theophrasti medicus; assay: as above; conditions: criteria of Table 138; for herbicidal effects on Abutilon theophrasti medicus: 1000 g of the active ingredient per hectare, 14th day after the treatment, wettable powder; for herbicidal effect (index) on Abutilon theophrasti medicus: 1000 g active ingredient per hectare, 14th day after treatment
Method in brief: as §2

[6] = tested on: Monochoria vaginalis (Burm. f.) Presl var. plantaginea (Roxb.) Solms-Laub.; assay: Herbicidal effects in paddy field soil treatment (Test Example 1); conditions: for Herbicidal effects index, Monochoria vaginalis (Burm. f.) Presl var. plantaginea (Roxb.) Solms-Laub.: paddy field soil treatment, 1000 g of the active ingredient per hectare, wettable powder added dropwise on water surface, 21st day after treatment
Method in brief: (§3)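 Seeds sown in puddled paddy soil, waterlogged to 3 cm depth; next day a diluted wettable powder applied dropwise to the water surface at 1000 g active ingredient per hectare. Herbicidal effect scored 21 days after treatment in a greenhouse.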

[7] = tested on: Scirpus juncoides Roxb. var. ohwianus. T. Koyama; assay: as above; conditions: for Herbicidal effects index, Scirpus juncoides Roxb. var. ohwianus. T. Koyama: paddy field soil treatment, 1000 g of the active ingredient per hectare, wettable powder added dropwise on water surface, 21st day after treatment
Method in brief: as §3

[8] = tested on: Echinochloa oryzicola Vasing; assay: as above; conditions: for Herbicidal effects index, Echinochloa oryzicola Vasing: paddy field soil treatment, 1000 g of the active ingredient per hectare, wettable powder added dropwise on water surface, 21st day after treatment
Method in brief: as §3

[9] = paddy field soil treatment (Test Example 1), criteria of Table 138

| SMILES | herbicidal effect (index) on Amaranthus viridis L. (Amaranthus viridis L. [1]) | herbicidal effect (index) on Abutilon theophrasti medicus [2] | herbicidal effects on Echinochloa crus-galli (L.) P. Beauv. var. crus-galli [3] | herbicidal effects on Amaranthus viridis L. (Amaranthus viridis L. [4]) | herbicidal effects on Abutilon theophrasti medicus [5] | Herbicidal effects index, Monochoria vaginalis (Burm. f.) Presl var. plantaginea (Roxb.) Solms-Laub. [6] | Herbicidal effects index, Scirpus juncoides Roxb. var. ohwianus. T. Koyama [7] | Herbicidal effects index, Echinochloa oryzicola Vasing [8] | herbicidal effect (index) on Echinochloa crus-galli (L.) P. Beauv. var. crus-galli [3] | herbicidal effect (index) on Amaranthus viridis L. (Amaranthus viridis L. [4]) | herbicidal effect (index) on Abutilon theophrasti medicus [5] | herbicidal effect (index) on Monochoria vaginalis (Burm. f.) Presl var. plantaginea (Roxb.) Solms-Laub. [6, 9] | herbicidal effect (index) on Scirpus juncoides Roxb. var. ohwianus. T. Koyama [7, 9] | herbicidal effect (index) on Echinochloa oryzicola Vasing [8, 9] |
| --- | --- | --- | --- | --- | --- | --- | --- | --- | --- | --- | --- | --- | --- | --- |
| CC1(C)C(=O)C(C(=O)c2nc3ccccc3n(-c3ccc(Cl)cc3)c2=O)=C(O)C(C)(C)C1=O [II-15] | 5 | 5 | 5 | 5 | 5 | 5 | 5 | 5 |  |  |  |  |  |  |
| O=C1CCCC(O)=C1C(=O)c1nc2ccccc2n(-c2nc(C(F)(F)F)co2)c1=O [I-268] | 5 | 5 |  |  |  | 5 | 5 | 5 | 5 | 5 | 5 |  |  |  |
| Cc1ccc(-n2c(=O)c(C(=O)C3=C(O)CCCC3=O)nc3cccnc32)cc1F [IV-222, 4-(3-fluoro-4-methylphenyl)-2-(2-hydroxy-6-oxo-1-cyclohexenecarbonyl)-pyrido[2,3-b]pyrazin-3 (4H)-one] | 5 | 5 | 5 | 5 | 5 |  |  |  |  |  |  | 5 | 5 | 5 |
| O=C1CCCC(O)=C1C(=O)c1nc2ccccc2n(COCC2CCCO2)c1=O (stereo not shown) [I-65] | 5 | 5 |  |  |  | 5 | 5 | 4 | 4 | 5 | 5 |  |  |  |
| O=C1CCCC(O)=C1C(=O)c1nc2ccccc2n(CC2CCCO2)c1=O (stereo not shown) [I-211] | 5 | 5 |  |  |  | 5 | 5 | 4 | 5 | 5 | 5 |  |  |  |
| COCc1ccc(-n2c(=O)c(C(=O)C3=C(O)CCCC3=O)nc3ccccc32)cc1 [II-149] | 5 | 4 | 5 | 5 | 5 | 5 | 5 | 5 |  |  |  |  |  |  |
| C=CCn1c(=O)c(C(=O)C2=C(O)CCCC2=O)nc2ccccc21 [Compound I-30] | 5 | 5 |  |  |  | 5 | 5 | 5 | 4 | 5 | 5 |  |  |  |
| COc1cc(OC)nc(-n2c(=O)c(C(=O)C3=C(O)CCCC3=O)nc3ccccc32)n1 [I-197] | 5 | 5 |  |  |  | 5 | 5 | 5 | 5 | 5 | 5 |  |  |  |
